In US8609660B2, “4,7-dihydro-pyrazolo[1,5-a]pyrazin-6-ylamine derivatives useful as inhibitors of beta-secretase (BACE)” (Janssen Pharmaceutica NV, priority 2010, dated 2013):

What was measured:
[1] = target: T1, recombinant BACE1 protein (Homo sapiens, UniProt P56817); assay: Biochemical FRET based assay; conditions: recombinant BACE1 1 μg/ml, 120 min, room temperature, pH 5.0; for IC50: read-out: Biochemical FRET based assay pIC50 (converted)
T1 construct: recombinant BACE1 protein in a final concentration of 1 μg/ml
T1 sequence (P56817 46-501): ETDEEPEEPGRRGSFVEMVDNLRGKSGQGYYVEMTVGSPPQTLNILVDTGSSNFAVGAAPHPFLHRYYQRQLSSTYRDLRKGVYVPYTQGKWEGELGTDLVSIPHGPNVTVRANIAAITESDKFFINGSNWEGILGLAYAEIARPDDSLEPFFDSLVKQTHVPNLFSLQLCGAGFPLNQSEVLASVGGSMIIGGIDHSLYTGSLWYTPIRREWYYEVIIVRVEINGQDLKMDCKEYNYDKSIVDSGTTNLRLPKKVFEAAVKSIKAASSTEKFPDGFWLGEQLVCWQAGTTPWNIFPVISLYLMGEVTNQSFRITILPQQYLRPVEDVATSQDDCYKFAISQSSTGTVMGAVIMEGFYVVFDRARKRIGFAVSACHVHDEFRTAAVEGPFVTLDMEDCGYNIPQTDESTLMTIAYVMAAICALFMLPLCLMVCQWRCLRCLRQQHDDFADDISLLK
Source text: Biochemical FRET Based Assay This assay is a Fluorescence Resonance Energy Transfer Assay (FRET) based assay. The substrate for this assay is an APP derived 13 amino acids peptide that contains the 'Swedish' […] mutation of the amyloid precursor protein (APP) β-secretase cleavage site. […] Upon cleavage by BACE1, the fluorophore Mca is separated from the quenching group Dnp, restoring the full fluorescence yield of the donor. The increase in fluorescence is linearly related to the rate of proteolysis (Koike H et al. J Biochem. 1999, 126, 235-42). Briefly in a 384-well format recombinant BACE1 protein in a final concentration of 1 μg/ml is incubated for 120 minutes at room temperature with 10 μm substrate in incubation buffer (40 mM Citrate buffer pH 5.0, 0.04% PEG, 4% DMSO) in the absence or presence of compound. Next the amount of proteolysis is directly measured by fluorescence measurement at T=0 and T=120 (excitation at 320 nm and emission at 405 nm). […] [formula]

[2] = test system: Aβ42 produced and secreted into the medium of human neuroblastoma SKNBE2 cells; assay: Cellular αlisa assay in SKNBE2 cells, Aβ42; assay type: cell-based; conditions: SKNBE2 cells expressing hAPP695, 18 hours incubation; for IC50: Homo sapiens, SKNBE2, 18 h, read-out: Cellular αlisa assay in SKNBE2 cells Aβ42 pIC50 (converted)
Protocol: (§1) Cellular αlisa Assay in SKNBE2 Cells In two αlisa assays the levels of Aβtotal and Aβ42 produced and secreted into the medium of human neuroblastoma SKNBE2 cells are quantified. The assay is based on the human neuroblastoma SKNBE2 expressing the wild type Amyloid Precursor Protein (hAPP695). […] Aβtotal and Aβ42 are measured by sandwich α[…] sandwich assay using biotinylated antibody AbN/25 attached to streptavidin coated beads and antibody Ab4G8 or cAb42/26 conjugated acceptor beads for the detection of Aβtotal and Aβ42 respectively. In the presence of Aβtotal or Aβ42, the beads come into close proximity. The excitation of the Donor beads provokes the release of singlet oxygen molecules that triggers a cascade of energy transfer in the Acceptor beads, resulting in light emission. Light emission is measured after 1 hour incubation (excitation at […] and emission at 615 nm). A best-fit curve is fitted by a minimum sum of squares method to the plot of % Controlmin versus compound concentration. […] [formula]

[3] = test system: Aβtotal produced and secreted into the medium of human neuroblastoma SKNBE2 cells; assay: Cellular αlisa assay in SKNBE2 cells, Aβtotal; assay type: cell-based; conditions: SKNBE2 cells expressing hAPP695, 18 hours incubation; for IC50: Homo sapiens, SKNBE2, 18 h, read-out: Cellular αlisa assay in SKNBE2 cells Aβtotal pIC50 (converted)
Protocol: as §1

brain levels of total Aβ = assay: In vivo efficacy: brain Aβtotal lowering (ELISA); set-up: species or system mouse; conditions: 30 mpk, sc
Source text: (§2) To determine whether acute administration of an Aβ42 peptide lowering agent would reduce Aβ peptide levels in vivo, non-transgenic rodents, e.g. mice or rats were used. Animals treated with the Aβ peptide lowering agent were examined and compared to those untreated or treated with vehicle and brain levels of soluble Aβ42 and total Aβ were quantitated by standard techniques, for example, using ELISA. Treatment periods varied from hours (h) to days and were adjusted based on the results of the Aβ42 lowering once a time course of onset of effect could be established.
(§3) A typical protocol for measuring Aβ42 lowering in vivo is shown but it is only one of many variations that could be used to optimize the levels of detectable Aβ. For example, Aβ peptide lowering compounds were formulated in 20% hydroxypropyl β cyclodextrin. The Aβ peptide lowering agents were administered as a single oral dose (p.o.) or a single subcutaneous dose (s.c.) to overnight fasted animals. After a certain time, usually 2 or 4 h (as indicated in Table 19), the animals were sacrificed and Aβ42 levels were analysed.
(§4) Blood was collected by decapitation and exsanguinations in EDTA-treated collection tubes. […] The left hemisphere was stored at −18° C. for quantitative analysis of test compound levels. […]
(§5) Mouse brains from non-transgenic animals were resuspended in 8 volumes of 0.4% DEA (diethylamine)/50 mM NaCl containing protease inhibitors (Roche-11873580001 or 04693159001) per gram of tissue, e.g. for 0.158 g brain, add 1.264 ml of 0.4% DEA. […] Nine parts of supernatant were neutralized with 1 part 0.5 M Tris-HCl pH 6.8 and used to quantify Aβtotal and Aβ42.
To quantify the amount of Aβtotal and Aβ42 in the soluble fraction of the brain homogenates, Enzyme-Linked-Immunosorbent-Assays were used. […] Following this incubation and subsequent wash steps the ELISA for Aβ42 quantification was finished by addition of Quanta Blu fluorogenic peroxidase substrate according to the manufacturer's instructions (Pierce Corp., Rockford, Ill.). A reading was performed after 10 to 15 min (excitation 320 nm/emission 420 nm). […]

[4] = test system: brain levels of soluble Aβ42; assay: In vivo efficacy: brain Aβ42 lowering (ELISA); set-up: species or system mouse; conditions: 30 mpk, sc
Source text: as §2, §3, §4, §5
To quantify the amount of Aβtotal and Aβ42 in the soluble fraction of the brain homogenates, Enzyme-Linked-Immunosorbent-Assays were used. […] Following this incubation and subsequent wash steps the ELISA for Aβ42 quantification was finished by addition of Quanta Blu fluorogenic peroxidase substrate according to the manufacturer's instructions (Pierce Corp., Rockford, Ill.). A reading was performed after 10 to 15 min (excitation 320 nm/emission 420 nm).

| SMILES | melting point | IC50 [1] | IC50 [2] | IC50 [3] | Cellular αlisa assay in SKNBE2 cells Aβ42 pIC50 [2] | Cellular αlisa assay in SKNBE2 cells Aβtotal pIC50 [3] | also measured |
| --- | --- | --- | --- | --- | --- | --- | --- |
| CC1(c2cc(-c3cncc(Cl)c3)ccc2F)N=C(N)Cn2nc(C(F)(F)F)cc21 (racemic) [Compound 24, rac-4-[5-(5-chloropyridin-3-yl)-2-fluorophenyl]-4-methyl-2-(trifluoromethyl)-4,7-dihydropyrazolo[1,5-a]pyrazin-6-amine] | 175.2 °C | – | – | – | – | – | – |
| NC1=N[C@@](c2cc(NC(=O)c3ncc(Cl)cc3F)ccc2F)(C2CC2)c2ccnn2C1 [Compound 33, (R)—N-{3-[6-amino-4-cyclopropyl-4,7-dihydropyrazolo[1,5-a]pyrazin-4-yl]-4-fluorophenyl}-5-chloro-3-fluoropyridine-2-carboxamide] | 272.6 °C | 309 nM | 25.7 nM | 20.9 nM | – | – | – |
| COc1cncc(-c2cccc(C3(C)N=C(N)Cn4nc(C(F)(F)F)cc43)c2)c1 (racemic) [Compound 21, rac-4-[3-(5-methoxypyridin-3-yl)-phenyl]-4-methyl-2-(trifluoromethyl)-4,7-dihydropyrazolo[1,5-a]pyrazin-6-amine] | 89.3 °C | – | – | – | – | – | – |
| CC1(c2cc(NC(=O)c3ccc(Cl)cn3)ccc2F)N=C(N)Cn2nccc21 (single isomer, unassigned) [Compound 11, (R*)—N-[3-(6-amino-4-methyl-4,7-dihydropyrazolo[1,5-a]pyrazin-4-yl)-4-fluorophenyl]-5-chloropyridine-2-carboxamide] | – | 42.7 nM | – | – | 8.36 | 8.37 | Aβtotal (% Ctrl)_Mean (brain levels of total Aβ; 4 h after administration): 80 % Ctrl; Aβ42 (% Ctrl)_Mean ([4]; 4 h after administration): 71 % Ctrl |
| CC1(c2cccc(-c3cc(Cl)cc(Cl)c3)c2)N=C(N)Cn2nccc21 (centres unmarked) [Compound 20] | – | – | – | – | 6.33 | 6.37 | Aβtotal (% Ctrl)_Mean (brain levels of total Aβ; 2 h after administration): 80 % Ctrl; Biochemical FRET based assay pIC50 [1]: 6.76; Aβ42 (% Ctrl)_Mean ([4]; 2 h after administration): 86 % Ctrl |
| COc1cncc(-c2cccc(C3(C)N=C(N)Cn4nccc43)c2)c1 (racemic) [Compound 2, rac-4-[3-(5-methoxypyridin-3-yl)-phenyl]-4-methyl-4,7-dihydropyrazolo[1,5-a]pyrazin-6-amine] | 191.8 °C | 1660 nM | 112 nM | 105 nM | – | – | Aβtotal (% Ctrl)_Mean (brain levels of total Aβ; 4 h after administration): 116 % Ctrl; Aβ42 (% Ctrl)_Mean ([4]; 4 h after administration): 109 % Ctrl |
| CC1(c2cc(-c3cncc(Cl)c3)ccc2F)N=C(N)Cn2nc(C(F)(F)F)cc21 (single isomer, unassigned) [Compound 26, (S*)-4-[5-(5-chloropyridin-3-yl)-2-fluorophenyl]-4-methyl-2-(trifluoromethyl)-4,7-dihydropyrazolo[1,5-a]pyrazin-6-amine] | – | > 30200 nM | – | – | <5 | <5 | – |
| CC1(c2cc(NC(=O)c3ncc(Cl)cc3Cl)ccc2F)N=C(N)Cn2nc(C(F)(F)F)cc21 (racemic) [Compound 27, rac-N-{3-[6-amino-4-methyl-2-(trifluoromethyl)-4,7-dihydropyrazolo[1,5-a]pyrazin-4-yl]-4-fluorophenyl}-3,5-dichloropyridine-2-carboxamide] | 198 °C | – | – | – | – | – | – |
| CC1(c2cc(-c3cncnc3)ccc2F)N=C(N)Cn2nccc21 (racemic) [Compound 16] | – | – | – | – | 5.53 | 5.48 | Biochemical FRET based assay pIC50 [1]: 4.98 |
| COc1cccc(-c2cccc([C@@]3(C)N=C(N)Cn4nccc43)c2)c1 [Compound 7, (R)-4-(3′-methoxybiphenyl-3-yl)-4-methyl-4,7-dihydropyrazolo[1,5-a]pyrazin-6-amine] | 153.8 °C | – | – | – | – | – | – |
| CC1(c2cc(NC(=O)c3ccc(Cl)cn3)ccc2F)N=C(N)Cn2nccc21 (single isomer, unassigned) [Compound 10, (S*)—N-[3-(6-Amino-4-methyl-4,7-dihydropyrazolo[1,5-a]pyrazin-4-yl)-4-fluorophenyl]-5-chloropyridine-2-carboxamide] | 199 °C | > 30200 nM | – | – | 5.41 | 5.44 | – |
| CC1(c2cc(-c3cncnc3)c(F)cc2F)N=C(N)Cn2nccc21 (racemic) [Compound 4, rac-4-(2,4-difluoro-5-pyrimidin-5-yl-phenyl)-4-methyl-4,7-dihydropyrazolo[1,5-a]pyrazin-6-amine] | 207 °C | 8710 nM | 1070 nM | 1050 nM | – | – | – |
| CC1(c2cc(-c3cncc(Cl)c3)ccc2F)N=C(N)Cn2nc(C(F)(F)F)cc21 (stereo not drawn) [Compound 24, rac-4-[5-(5-chloropyridin-3-yl)-2-fluorophenyl]-4-methyl-2-(trifluoromethyl)-4,7-dihydropyrazolo[1,5-a]pyrazin-6-amine] | – | 7240 nM | 5890 nM | 5370 nM | – | – | – |
